Reference: article PMC4038613, “A New Class of Multimerization Selective Inhibitors of HIV-1 Integrase” (PLoS Pathogens, 2014)
Like-named read-outs stand apart in the source and are kept apart here.

Experiments:
[1] = biological target: T1, HIV-1 IN (Human immunodeficiency virus type 1 group M subtype B, UniProt P12497); details: IC50 for inhibiting IN-LEDGF/p75 binding divided by EC50 for aberrant IN multimerization; fold
Method: (§1) HTRF-based IN multimerization and IN-LEDGF/p75 binding assays were carried out as described previously [33]. The HTRF signal was recorded using a Perkin Elmer Multimode EnSpire plate reader.

[2] = system: VSV-G pseudotyped HIV-1-Luc; format: cell-based
[3] = biological target: IN in HIV-1 virions (Human immunodeficiency virus type 1 group M subtype B, UniProt P12497); assay: Virion-associated IN cross-linking assay (BS3); format: cell-based; details: virions from cells treated with 1 µM KF116
Method: (A) DLS analysis of KF116-induced multimerization of recombinant IN. […] The indicated volumes of cross-linked reaction products were resolved by SDS-PAGE and immunoblotted with HIV-1 IN antibody. The bands corresponding to IN “monomer”, “dimer”, and “higher order oligomers” are indicated.
The IN cross-linking assay was performed as described previously. Briefly, concentrated virions equivalent to 50 ng of HIV-1 p24 were cross-linked with 50 µM bis(sulfosuccinimidyl)suberate (BS^3) cross-linking reagent (Thermo Scientific). Subsequent cross-linked reaction products were quenched and resolved by SDS-PAGE (4–12%, Invitrogen) and immunoblotted.

[4] = system: HIV-1; assay: Antiviral assay, early stage (inhibitor added to target cells); format: cell-based; details: called IC50
[5] = system: initiation of reverse transcription; assay: tRNALys3 primer extension assay; format: biochemical, HIV-1; details: virions produced with 1 µM KF116
[6] = system: HIV-1 particles; assay: Virus production (Gag p24 ELISA) and virion protein processing (immunoblot); format: cell-based; details: 1 µM KF116
Method: HEK293T cells (2×10^6 cells/100 mm culture dish in 10 ml of complete medium) were transfected with HIV-1 provirus (pNL4-3) and cultured for 24 h to ensure expression of the provirus as described above. Next, the cells were treated with the indicated inhibitor or diluent control (DMSO) for 1 h. The culture supernatant was replaced with fresh complete medium containing either the inhibitor or DMSO, and cells were then cultured for another 24 h to allow for the production of HIV-1 particles in the presence of the inhibitor or diluent control. The virus containing cell-free supernatant was collected, filtered through 0.45 µm filter, and the amounts of viral particles produced was measured by HIV-1 Gag p24 ELISA (ZeptoMetrix) following manufacturer's protocol. Equivalent amounts of virions (∼5 µg p24 based on HIV-1 p24 ELISA) were concentrated over a 25% sucrose cushion by ultra-centrifugation at 28,000 rpm for 2 h at 4°C in SW41 rotor (Beckman). Pelleted virions were lysed in 100 µL RIPA buffer containing 50 mM Tris (pH 8.0), 150 mM NaCl, 0.1% SDS, 1% Triton-X, 1% deoxycholic acid, and 2 mM PMSF. Indicated amounts of concentrated virions were resolved by SDS-PAGE (4–12%, Invitrogen) and immunoblotted.
HEK293T cells were transfected with HIV-1 provirus (pNL4-3). […] (A) Virus-containing cell-free supernatant were harvested and cell-free Gag was measured by HIV-1 Gag p24 ELISA. […]

[7] = biological target: T1, HIV-1 IN; assay: biochemical
Method: as §1

In the case of Cc1nc(-c2nc3ccc(Cl)cc3[nH]2)c(C)c(-c2ccccc2)c1C(OC(C)(C)C)C(=O)O (stereo not shown) [KF116], the “Selectivity ratio, IC50 IN-LEDGF/EC50 aberrant IN multimerization” value [1] is reported as 58.5, the “effect on replication intermediates in target cells of virions produced in presence of inhibitor” value [2] is reported as “sharply reduced levels of early and late RT products” and the “effect on replication intermediates when inhibitor added to target cells” value [2] is reported as “had no effects on reverse transcription, integration, levels of 2-LTRs, or viral expression”. For the same compound, the “IN multimerization in virions after BS3 cross-linking” value [3] was “levels of IN dimers increased and new slower migrating bands were observed”, the EC50 ([4]; Human immunodeficiency virus 1, read-out: EC50, Early Stage, target cells, inhibitor added to target cells, untreated virions) was 50.9 ± 4.3 µM and the EC50 ([4]; read-out: EC50, Early Stage, target cells, inhibitor added to target cells, untreated virions) was roughly 50 µM. The “effect on annealing of tRNALys3 primer to viral RNA template (primer extension)” value [5] was “did not significantly affect”, the “effect on HIV-1 Gag/Gag-Pol protein processing” value [6] was “did not affect” and the “effect on virus particle production” value [6] was “did not affect”. The EC50 [7] was 0.086 ± 0.006 µM.
